In PubChem BioAssay (NCI):
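Protocol summary: plate cells (96-well), add compound at 5 concentrations, incubate 48 h, interpolate endpoints linearly. Abbreviation: GI50, concentration required for 50% inhibition of growth. TGI: concentration producing complete growth inhibition.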

Experiments:
Experiment in all cases: NCI anticancer screen, dose series, 48 h
786-0 renal = tested on: 786-0 renal
A498 renal = tested on: A498 renal
A549 NSCLC = tested on: A549 NSCLC
ACHN renal = tested on: ACHN renal
BT-549 breast = tested on: BT-549 breast
CAKI-1 renal = tested on: CAKI-1 renal
CCRF-CEM leukemia = tested on: CCRF-CEM leukemia
COLO 205 colon = tested on: COLO 205 colon
DU-145 prostate = tested on: DU-145 prostate
EKVX NSCLC = tested on: EKVX NSCLC
HCC-2998 colon = tested on: HCC-2998 colon
HCT-116 colon = tested on: HCT-116 colon
HCT-15 colon = tested on: HCT-15 colon
HL-60(TB) leukemia = tested on: HL-60(TB) leukemia
HOP-62 NSCLC = tested on: HOP-62 NSCLC
HOP-92 NSCLC = tested on: HOP-92 NSCLC
HS 578T breast = tested on: HS 578T breast
HT29 colon = tested on: HT29 colon
IGROV1 ovarian = tested on: IGROV1 ovarian
K-562 leukemia = tested on: K-562 leukemia
KM12 colon = tested on: KM12 colon
LOX IMVI melanoma = tested on: LOX IMVI melanoma
M14 melanoma = tested on: M14 melanoma
MALME-3M melanoma = tested on: MALME-3M melanoma
MCF7 breast = tested on: MCF7 breast
MDA-MB-231 breast = tested on: MDA-MB-231 breast
MDA-MB-435 = tested on: MDA-MB-435
MDA-MB-468 breast = tested on: MDA-MB-468 breast
MOLT-4 leukemia = tested on: MOLT-4 leukemia
NCI-H226 lung = tested on: NCI-H226 lung
NCI-H23 lung = tested on: NCI-H23 lung
NCI-H460 lung = tested on: NCI-H460 lung
NCI-H522 lung = tested on: NCI-H522 lung
NCI/ADR-RES ovarian = tested on: NCI/ADR-RES ovarian
OVCAR-3 ovarian = tested on: OVCAR-3 ovarian
OVCAR-4 ovarian = tested on: OVCAR-4 ovarian
OVCAR-5 ovarian = tested on: OVCAR-5 ovarian
OVCAR-8 ovarian = tested on: OVCAR-8 ovarian
PC-3 prostate = tested on: PC-3 prostate
RPMI-8226 leukemia = tested on: RPMI-8226 leukemia
RXF 393 renal = tested on: RXF 393 renal
SF-268 CNS = tested on: SF-268 CNS
SF-295 CNS = tested on: SF-295 CNS
SF-539 CNS = tested on: SF-539 CNS
SK-MEL-2 melanoma = tested on: SK-MEL-2 melanoma
SK-MEL-28 melanoma = tested on: SK-MEL-28 melanoma
SK-MEL-5 melanoma = tested on: SK-MEL-5 melanoma
SK-OV-3 ovarian = tested on: SK-OV-3 ovarian
SN12C renal = tested on: SN12C renal
SNB-19 CNS = tested on: SNB-19 CNS
SNB-75 CNS = tested on: SNB-75 CNS
SW-620 colon = tested on: SW-620 colon
T-47D breast = tested on: T-47D breast
TK-10 renal = tested on: TK-10 renal
U251 CNS = tested on: U251 CNS
UACC-257 melanoma = tested on: UACC-257 melanoma
UACC-62 melanoma = tested on: UACC-62 melanoma
UO-31 renal = tested on: UO-31 renal

Work on `CN(C)c1nc(NCCNS(=O)(=O)c2ccc(C(=O)/C=C/c3ccc(C(F)(F)F)cc3)cc2)nc(Nc2ccc(F)cc2)n1` yielded a GI50 (786-0 renal) of 10.6 µM, a TGI (786-0 renal) of 22.7 µM and a GI50 (A498 renal) of 13 µM. It also gave a TGI (A498 renal) of 26.2 µM, a GI50 (A549 NSCLC) of 10 µM and a TGI (A549 NSCLC) of 25.4 µM. It also gave a GI50 (ACHN renal) of 5.08 µM, a TGI (ACHN renal) of 17.4 µM and a GI50 (BT-549 breast) of 12.7 µM. The TGI (BT-549 breast) was 25.6 µM, the GI50 (CAKI-1 renal) was 6.46 µM and the TGI (CAKI-1 renal) was 19.7 µM. The GI50 (CCRF-CEM leukemia) was 3.79 µM, the TGI (CCRF-CEM leukemia) was over 100 µM and the GI50 (COLO 205 colon) was 11.2 µM. The TGI (COLO 205 colon) was 24.8 µM, the GI50 (DU-145 prostate) was 11.2 µM and the TGI (DU-145 prostate) was 24 µM. For the same molecule, the GI50 (EKVX NSCLC) was 4.2 µM, the TGI (EKVX NSCLC) was 15.7 µM and the GI50 (HCC-2998 colon) was 1.77 µM. The TGI (HCC-2998 colon) was 3.61 µM, the GI50 (HCT-116 colon) was 1.68 µM and the TGI (HCT-116 colon) was 3.13 µM. It also gave a GI50 (HCT-15 colon) of 3.22 µM, a TGI (HCT-15 colon) of 11.9 µM and a GI50 (HL-60(TB) leukemia) of 3.82 µM. It also gave a TGI (HL-60(TB) leukemia) of 30 µM, a GI50 (HOP-62 NSCLC) of 13.6 µM and a TGI (HOP-62 NSCLC) of 27.7 µM. It also gave a GI50 (HOP-92 NSCLC) of 6.15 µM, a TGI (HOP-92 NSCLC) of 20.7 µM and a GI50 (HS 578T breast) of 12.7 µM. The TGI (HS 578T breast) was 49.5 µM, the GI50 (HT29 colon) was 1.91 µM and the TGI (HT29 colon) was 3.95 µM. It also gave a GI50 (IGROV1 ovarian) of 12.3 µM, a TGI (IGROV1 ovarian) of 24.9 µM and a GI50 (K-562 leukemia) of 2.98 µM. For the same molecule, the TGI (K-562 leukemia) was 30.4 µM, the GI50 (KM12 colon) was 2.38 µM and the TGI (KM12 colon) was 6 µM. It also gave a GI50 (LOX IMVI melanoma) of 1.86 µM, a TGI (LOX IMVI melanoma) of 3.84 µM and a GI50 (M14 melanoma) of 3.39 µM. For the same molecule, the TGI (M14 melanoma) was 12.9 µM, the GI50 (MALME-3M melanoma) was 14.2 µM and the TGI (MALME-3M melanoma) was 27.5 µM. The GI50 (MCF7 breast) was 1.7 µM, the TGI (MCF7 breast) was 3.56 µM and the GI50 (MDA-MB-231 breast) was 8.38 µM. For the same molecule, the TGI (MDA-MB-231 breast) was 20.8 µM, the GI50 (MDA-MB-435) was 2.86 µM and the TGI (MDA-MB-435) was 8.49 µM. For the same molecule, the GI50 (MDA-MB-468 breast) was 4.53 µM, the TGI (MDA-MB-468 breast) was 17 µM and the GI50 (MOLT-4 leukemia) was 2.9 µM. It also gave a TGI (MOLT-4 leukemia) of 9.61 µM, a GI50 (NCI-H226 lung) of 7.82 µM and a TGI (NCI-H226 lung) of 24.7 µM. The GI50 (NCI-H23 lung) was 11.2 µM, the TGI (NCI-H23 lung) was 24.2 µM and the GI50 (NCI-H460 lung) was 4.09 µM. It also gave a TGI (NCI-H460 lung) of 14.9 µM, a GI50 (NCI-H522 lung) of 11.2 µM and a TGI (NCI-H522 lung) of 24.7 µM. It also gave a GI50 (NCI/ADR-RES ovarian) of 10.7 µM, a TGI (NCI/ADR-RES ovarian) of 23.7 µM and a GI50 (OVCAR-3 ovarian) of 2.04 µM. The TGI (OVCAR-3 ovarian) was 5.61 µM, the GI50 (OVCAR-4 ovarian) was 8.78 µM and the TGI (OVCAR-4 ovarian) was 23.1 µM. It also gave a GI50 (OVCAR-5 ovarian) of 12 µM, a TGI (OVCAR-5 ovarian) of 24.4 µM and a GI50 (OVCAR-8 ovarian) of 12.3 µM. It also gave a TGI (OVCAR-8 ovarian) of 30.6 µM, a GI50 (PC-3 prostate) of 4.15 µM and a TGI (PC-3 prostate) of 18.2 µM. For the same molecule, the GI50 (RPMI-8226 leukemia) was 3 µM, the TGI (RPMI-8226 leukemia) was over 100 µM and the GI50 (RXF 393 renal) was 3.7 µM. The TGI (RXF 393 renal) was 16 µM, the GI50 (SF-268 CNS) was 7.71 µM and the TGI (SF-268 CNS) was 22.5 µM. It also gave a GI50 (SF-295 CNS) of 11.3 µM, a TGI (SF-295 CNS) of 23.5 µM and a GI50 (SF-539 CNS) of 10.7 µM. It also gave a TGI (SF-539 CNS) of 22.5 µM, a GI50 (SK-MEL-2 melanoma) of 9.45 µM and a TGI (SK-MEL-2 melanoma) of 22.3 µM. The GI50 (SK-MEL-28 melanoma) was 10.4 µM, the TGI (SK-MEL-28 melanoma) was 22.2 µM and the GI50 (SK-MEL-5 melanoma) was 10.4 µM. The TGI (SK-MEL-5 melanoma) was 22.2 µM, the GI50 (SK-OV-3 ovarian) was 13.7 µM and the TGI (SK-OV-3 ovarian) was 27.8 µM. For the same molecule, the GI50 (SN12C renal) was 6.36 µM, the TGI (SN12C renal) was 19.9 µM and the GI50 (SNB-19 CNS) was 12 µM. For the same molecule, the TGI (SNB-19 CNS) was 24.3 µM, the GI50 (SNB-75 CNS) was 8.41 µM and the TGI (SNB-75 CNS) was 22.7 µM. The GI50 (SW-620 colon) was 2.24 µM, the TGI (SW-620 colon) was 5.06 µM and the GI50 (T-47D breast) was 5.16 µM. For the same molecule, the TGI (T-47D breast) was 19.6 µM, the GI50 (TK-10 renal) was 17.4 µM and the TGI (TK-10 renal) was 32 µM. For the same molecule, the GI50 (U251 CNS) was 3.42 µM, the TGI (U251 CNS) was 13 µM and the GI50 (UACC-257 melanoma) was 11 µM. The TGI (UACC-257 melanoma) was 25 µM, the GI50 (UACC-62 melanoma) was 6.24 µM and the TGI (UACC-62 melanoma) was 19.4 µM. It also gave a GI50 (UO-31 renal) of 6.41 µM and a TGI (UO-31 renal) of 19.9 µM.
